Test results: PubChem BioAssay (NCI)
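1) Cells in 96-well plates. 2) Compound, 48 h, 5 concentrations. 3) Linear interpolation between surrounding doses. 4) Unreached endpoint = highest concentration. The concentration for 50% growth inhibition is given as GI50. TGI marks complete inhibition of growth.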

Experiments:
Test in all cases: NCI tumour cell line growth inhibition, 48 h
[1] = test system: SK-MEL-5 melanoma
[2] = test system: MDA-MB-435
[3] = test system: T-47D breast
[4] = test system: NCI-H226 lung
[5] = test system: HS 578T breast
[6] = test system: NCI-H460 lung
[7] = test system: OVCAR-8 ovarian
[8] = test system: MOLT-4 leukemia
[9] = test system: A549 NSCLC
[10] = test system: ACHN renal

For `COc1ccc(SC2c3ccc(C)cc3Oc3nc(N)c(C#N)c(N)c32)cc1` (stereo not given), the GI50 [1] was 1.77 µM, the TGI [1] was 3.15 µM and the GI50 [2] was 1.69 µM. For the same molecule, the TGI [2] was 3.16 µM, the GI50 [3] was 1.9 µM and the TGI [3] was 4.63 µM. The GI50 [4] was 1.75 µM, the TGI [4] was 3.22 µM and the GI50 [5] was 2.27 µM. It also gave a TGI [5] of 5.54 µM, a GI50 [6] of 2.13 µM and a TGI [6] of 4.36 µM. It also gave a GI50 [7] of 1.64 µM, a TGI [7] of 3.06 µM and a GI50 [8] of 1.96 µM. It also gave a TGI [8] of 5.61 µM, a GI50 [9] of 2.19 µM and a TGI [9] of 4.21 µM. For the same molecule, the GI50 [10] was 1.76 µM and the TGI [10] was 3.15 µM.

In the case of `COc1ccc(-c2nn(-c3cccc(Cl)c3)cc2-c2c(C#N)c(=O)n3[nH]c(-c4ccc(C)cc4)nc3c2C#N)cc1`, the GI50 [1] is reported as 6.06 µM, the TGI [1] is reported as 14 µM and the GI50 [2] is reported as 1.48 µM. The TGI [2] was 7.9 µM, the GI50 [3] was 5.15 µM and the TGI [3] was 12.1 µM. The GI50 [4] was 2.39 µM, the TGI [4] was 9.62 µM and the GI50 [5] was 1.23 µM. For the same molecule, the TGI [5] was 15 µM, the GI50 [6] was 1.85 µM and the TGI [6] was 8.31 µM. The GI50 [7] was 0.818 µM, the TGI [7] was 2.99 µM and the GI50 [8] was 0.752 µM. The TGI [8] was 5.46 µM, the GI50 [9] was 1.85 µM and the TGI [9] was 12.4 µM. It also gave a GI50 [10] of 2.41 µM and a TGI [10] of 12.6 µM.

For `Cc1cc([N+](=O)[O-])ccc1NS(=O)(=O)c1cc(Cl)ccc1Cl`, the GI50 [1] was 1.54 µM, the TGI [1] was 3.83 µM and the GI50 [2] was 2.77 µM. It also gave a TGI [2] of 36.6 µM, a GI50 [3] of 1.92 µM and a TGI [3] of 8.01 µM. It also gave a GI50 [4] of 2.87 µM, a TGI [4] of 14.3 µM and a GI50 [5] of 4.23 µM. The TGI [5] was 60.5 µM, the GI50 [6] was 2.97 µM and the TGI [6] was over 43.6 µM. It also gave a GI50 [7] of 3.65 µM, a TGI [7] of over 100 µM and a GI50 [8] of 4.03 µM. For the same molecule, the TGI [8] was 20.1 µM, the GI50 [9] was 2.91 µM and the TGI [9] was over 51 µM. It also gave a GI50 [10] of 3.18 µM and a TGI [10] of over 100 µM.

Molecule `O=c1oc(-c2ccccc2)cc2cccc(O)c12` has a GI50 [1] of 24 µM, a TGI [1] of over 100 µM and a GI50 [2] of 69 µM. For the same molecule, the TGI [2] was over 100 µM, the GI50 [3] was 13.6 µM and the TGI [3] was over 100 µM. The GI50 [4] was 19.4 µM, the TGI [4] was 51 µM and the GI50 [5] was 23.8 µM. For the same molecule, the TGI [5] was 54.7 µM, the GI50 [6] was 29 µM and the TGI [6] was over 100 µM. It also gave a GI50 [7] of 23.9 µM, a TGI [7] of 52.4 µM and a GI50 [8] of 66.3 µM. It also gave a TGI [8] of over 100 µM, a GI50 [9] of 24.7 µM and a TGI [9] of over 64.6 µM. The GI50 [10] was 25.9 µM and the TGI [10] was over 73.1 µM.

In the case of `CCn1c2ccc(C(=O)CCCN(C)C)cc2c2cc(C(=O)CCCN(C)C)ccc21`, the TGI [1] is reported as 17.1 µM, the TGI [2] is reported as 2.82 µM and the TGI [3] is reported as 33.5 µM. The TGI [4] was 8.61 µM, the TGI [5] was 6.35 µM and the TGI [6] was 2.61 µM. It also gave a TGI [7] of 7.59 µM, a TGI [8] of over 100 µM and a TGI [9] of 3.27 µM. For the same molecule, the TGI [10] was 6.06 µM.

`Cc1cc(Oc2cnc(=O)[nH]c2)cs1` was tested, and the TGI [1] was over 100 µM, the TGI [2] was over 100 µM and the TGI [3] was over 100 µM. It also gave a TGI [4] of over 100 µM, a TGI [5] of over 100 µM and a TGI [6] of over 100 µM. It also gave a TGI [7] of over 100 µM, a TGI [8] of over 100 µM and a TGI [9] of over 100 µM. It also gave a TGI [10] of over 100 µM.

In the case of `O=C1NC(=O)C(c2ccc(Cl)cc2)=C1Nc1ccc(Cl)c(C(=O)O)c1`, the GI50 [1] is reported as over 25 µM, the TGI [1] is reported as over 25 µM and the GI50 [2] is reported as over 25 µM. It also gave a TGI [2] of over 25 µM, a GI50 [3] of over 25 µM and a TGI [3] of over 25 µM. The GI50 [4] was over 25 µM, the TGI [4] was over 25 µM and the GI50 [5] was over 25 µM. It also gave a TGI [5] of over 25 µM, a GI50 [6] of over 25 µM and a TGI [6] of over 25 µM. It also gave a GI50 [7] of over 25 µM, a TGI [7] of over 25 µM and a GI50 [8] of over 25 µM. For the same molecule, the TGI [8] was over 25 µM, the GI50 [9] was over 25 µM and the TGI [9] was over 25 µM. It also gave a GI50 [10] of over 25 µM and a TGI [10] of over 25 µM.

For `O=C1c2cc(-c3ccccc3)ccc2-c2c1c1ccc([N+](=O)[O-])cc1c(=O)n2CCCBr`, the GI50 [1] was over 50 µM, the TGI [1] was over 50 µM and the GI50 [2] was over 50 µM. For the same molecule, the TGI [2] was over 50 µM, the GI50 [3] was over 50 µM and the TGI [3] was over 50 µM. The GI50 [4] was over 47.4 µM, the TGI [4] was over 50 µM and the GI50 [5] was 10.5 µM. The TGI [5] was over 40.7 µM, the GI50 [6] was over 50 µM and the TGI [6] was over 50 µM. For the same molecule, the GI50 [7] was over 50 µM, the TGI [7] was over 50 µM and the GI50 [8] was over 50 µM. The TGI [8] was over 50 µM, the GI50 [9] was over 50 µM and the TGI [9] was over 50 µM. The GI50 [10] was over 36.3 µM and the TGI [10] was over 50 µM.

For `COc1ccc2nc3cc([N+](=O)[O-])ccc3c(NCCCN(CCO)CCO)c2c1`, the GI50 [1] was 1.8 µM, the TGI [1] was 4.69 µM and the GI50 [2] was 2.27 µM. The TGI [2] was 5.67 µM, the GI50 [3] was 1.62 µM and the TGI [3] was 7.5 µM. The GI50 [4] was 8.1 µM, the TGI [4] was 21.5 µM and the GI50 [5] was 4.06 µM. The TGI [5] was 12.5 µM, the GI50 [6] was 2.18 µM and the TGI [6] was 8.75 µM. The GI50 [7] was 3.31 µM, the TGI [7] was 11.2 µM and the GI50 [8] was 2.59 µM. It also gave a TGI [8] of 5.99 µM, a GI50 [9] of 10.9 µM and a TGI [9] of 24.6 µM. The GI50 [10] was 10 µM and the TGI [10] was 23 µM.

Molecule `CCN(CC)CCCC(C)Nc1c2ccc(Cl)cc2nc2cc(OC)c(OC)cc12` (stereo not given) has a GI50 [1] of 1.81 µM, a TGI [1] of 3.21 µM and a GI50 [2] of 1.65 µM. It also gave a TGI [2] of 3.08 µM, a GI50 [3] of 7.36 µM and a TGI [3] of 32.5 µM. For the same molecule, the GI50 [4] was 1.47 µM, the TGI [4] was 5.39 µM and the GI50 [5] was 2.75 µM. The TGI [5] was 10.1 µM, the GI50 [6] was 1.3 µM and the TGI [6] was 4.05 µM. It also gave a GI50 [7] of 2.28 µM, a TGI [7] of 10.3 µM and a GI50 [8] of 0.594 µM. The TGI [8] was 12.6 µM, the GI50 [9] was 1.85 µM and the TGI [9] was 4.56 µM. The GI50 [10] was 1.18 µM and the TGI [10] was 2.97 µM.

With `O=CC(Br)C(Br)c1ccccc1` (stereo not given) the GI50 [1] was 3.58 µM, the TGI [1] was 13.8 µM and the GI50 [2] was 1.74 µM. The TGI [2] was 3.63 µM, the GI50 [3] was 0.942 µM and the TGI [3] was 3.17 µM. For the same molecule, the GI50 [4] was 6.8 µM, the TGI [4] was 18.7 µM and the GI50 [5] was 8.81 µM. The TGI [5] was 43.9 µM, the GI50 [6] was 14.5 µM and the TGI [6] was 31.2 µM. It also gave a GI50 [7] of 2.95 µM, a TGI [7] of 10.2 µM and a GI50 [8] of 0.904 µM. The TGI [8] was 3.89 µM, the GI50 [9] was 21.1 µM and the TGI [9] was 49.9 µM. It also gave a GI50 [10] of 1.64 µM and a TGI [10] of 3.12 µM.

Work on `Cc1ccc(C(=O)/C(=C\c2ccc([N+](=O)[O-])cc2)S(=O)Cc2ccc(F)cc2)cc1` (stereo not given) yielded a GI50 [1] of 1.76 µM, a TGI [1] of 3.32 µM and a GI50 [2] of 1.76 µM. For the same molecule, the TGI [2] was 3.65 µM, the GI50 [3] was 1.91 µM and the TGI [3] was 5.51 µM. The GI50 [4] was 3.48 µM, the TGI [4] was 13.1 µM and the GI50 [5] was 2.87 µM. For the same molecule, the TGI [5] was 8.76 µM, the GI50 [6] was 1.89 µM and the TGI [6] was 3.85 µM. The GI50 [7] was 1.88 µM, the TGI [7] was 4.08 µM and the GI50 [8] was 1.3 µM. For the same molecule, the TGI [8] was 5.58 µM, the GI50 [9] was 2.86 µM and the TGI [9] was 8.8 µM. For the same molecule, the GI50 [10] was 1.86 µM and the TGI [10] was 3.6 µM.

Molecule `COc1ccc([I+]c2ccccc2)cc1` has a GI50 [1] of 2.61 µM, a TGI [1] of 11.5 µM and a GI50 [2] of 10.1 µM. For the same molecule, the TGI [2] was over 100 µM, the GI50 [3] was 9.22 µM and the TGI [3] was over 100 µM. For the same molecule, the GI50 [4] was 12.2 µM, the TGI [4] was over 100 µM and the GI50 [5] was 15.9 µM. The TGI [5] was over 100 µM, the GI50 [6] was 5.17 µM and the TGI [6] was over 100 µM. For the same molecule, the GI50 [7] was 1.37 µM, the TGI [7] was over 100 µM and the GI50 [8] was 7.59 µM. It also gave a TGI [8] of over 100 µM, a GI50 [9] of 4.38 µM and a TGI [9] of over 100 µM. It also gave a GI50 [10] of 42.7 µM and a TGI [10] of over 100 µM.
